Reference: patent US20260185992A1, “METHODS FOR SELECTING AND TREATING PATIENTS WITH RETINAL DISEASE BASED ON COMPLEMENT PATHWAY HYPERACTIVITY” (Oak Bay Biosciences Inc., priority 2024, published 2026)
Where two headings read alike, the source gives them in different places.

Key:
[1] = test system: patients with ocular disease (Geographic Atrophy, AMD); details: cited from earlier work; for benefit in trials: GA trials, systemic or IVT administered agents; for Status (clinical trial outcome): Table 1, ocular disease indication
GA patients [2] = details: 2 mg q4w, cited from earlier work
C5 = C5 (Homo sapiens, UniProt P01031); details: report from publications; read-out: affinity for C5; cited from earlier work
[3] = FDA prescribing information; cited from earlier work
Bb in aqueous humor [4] = assay: CHROMA/SPECTRI Phase 3 biomarker substudy: response to lampalizumab by aqueous humor Bb; format: in vivo, human; details: Month 6
Procedure: Patient level data for patients in the sham, q4w, and […] lampalizumab Phase 3 biomarker study, as reported by Edmonds et al (Edmonds R. et al., “Complement pathway Inhibition by Lampalizumab: Analysis of Data From Chroma and Spectri Phase III Clinical Trials.” Ophthalmol Sci. 2023; 3 (3): 100286. Published 2023 Feb. 13), in Supplemental FIG. 6 of Bb (ng/mL) in aqueous humor was measured and converted into numerical data points. To verify accuracy of the plotted data points, mean and standard deviation was calculated using the plotted data and compared to the reported mean and standard deviation in Edmonds et al. Values were in good agreement.
(§1) In addition to the overall efficacy analyses, a biomarker sub study was conducted with about 100 patients (of which 33 from sham, q4w, q6w) with biomarker sampling at baseline and Month 6. Multiple complement factors were measured, including CFB, Bb, FD, C3, C3b/iC3b/C3d, C4, C4b/C4c. Results were described in Edmonds et al. Individual data points for the measured ocular proteins were reported in figures (Edmonds at FIG. 4 and Supplemental FIGS. 4-10) in addition to cohort level metrics (baseline and efficacy at 6 months).
In Edmonds, the ratio of Bb/CFB was used to assess complement activity and concluded that dosing with higher concentrations or more frequent dosing would not result in greater inhibitor of the complement pathway as there is no meaningful correlation between Bb: CFB ratio and percent change in aqueous humor from baseline to week 24.
To reassess the data & results described in Edmonds according to the categorization described herein, the data points for Bb at baseline and Month 6 in Supplemental FIG. 6 were converted into numerical values based on measurement relative to the axes and categorized as follows:
• 1. […] Ineffective lampalizumab administration-Hyper baseline, hyper at Month 6 and <50% reduction in Bb at Month 6 from baseline Bb • 3.

Bb in aqueous humor [5] = details: essentially all individual patients treated, q4w and q6w (Edmonds at FIG. 4B); cited from earlier work
[6] = test system: patients with geographic atrophy; assay: CHROMA + SPECTRI Phase 3 trials: change in GA area from baseline; format: in vivo, human
Procedure: The CHROMA & SPECTRI Phase 3 trials evaluated lampalizumab (anti-fD fab) intravitreally administered IVT 10 mg at q4w or q6w intervals compared to sham (untreated) controls. Both studies had identical designs, and each enrolled a total of about 900 patients (300 per cohort, lampa q4w, lampa […], etc). The trial is described in Holz et al. (Holz F G et al. “Efficacy and Safety of Lampalizumab for Geographic Atrophy Due to Age-Related Macular Degeneration: Chroma and Spectri Phase 3 Randomized Clinical Trials”. JAMA Ophthalmol. 2018; 136 (6): 666-677)
as §1
As “control” prediction methodology, the pooled progression for sham, q4w, and q6w at 12 months as reported in Edmonds of the overall Phase 3 was divided by 2 to estimate the progression of a cohort of any patients at 6 months.

[7] = test system: patients with geographic atrophy; details: cited from earlier work
[8] = in vivo; cited from earlier work
[9] = test system: patients with bilateral GA; details: FILLY post hoc analysis (Fu), 12 months; cited from earlier work
[10] = test system: patients with bilateral GA; assay: FILLY Phase 2 study eye vs. fellow eye analysis; format: in vivo, human; details: baseline to month 12
Procedure: Apellis sponsored FILLY was a phase 2 trial evaluating efficacy of intravitreal pegcetacoplan complement C3 and C3b inhibitor on slowing GA progression, which included only one eye per participant in the treatment group.
A post hoc analysis of phase 2 FILLY trial data comparing study (treated monthly, treated every other month and sham-treated) and fellow (untreated) eyes in a split-person study design was performed and the results published (Fu et al, 2023, hereinafter “Fu”). This analysis included 288 eyes from 144 patients with bilateral GA from the FILLY phase 2 trial (Clinical Trials identifier: NCT02503332). Only patients with bilateral GA and without evidence of choroidal neovascularization in either eye were included. Patient study eyes were treated with sham injections or with pegcetacoplan monthly (PM) or every other month (PEOM) for 12 months. […] Fu specifically interpreted the data as showing “on an individual patient level, changes in GA area for the fellow eye exceeded those in the study eye for most patients in the pegcetacoplan treatment groups, while changes in the sham group approached randomness between study and fellow eyes.” Fu et al. (Fu D J et al., “Evaluating the Effects of C3 Inhibition on Geographic Atrophy Progression from Deep-Learning OCT Quantification: A Split-Person Study”. Ophthalmol Ther. 2023). […]

[11] = test system: eyes of patients with bilateral GA without CNV; assay: Real world SYFOVRE study: area of RPE loss by OCT; format: in vivo, human; details: post treatment (70 days)
Procedure: (§2) Study Description: This study included GA anatomic (OCT, Specralis) & treatment administration data (treatment, injection date) and aqueous humor (AH) samples from 9 eyes of 5 patients with bilateral GA without CNV, treated with SYFOVRE® per USPI at a private retinal practice in the United States of America. The study was performed in accordance with the tenets of the Declaration of Helsinki and the Medical Research Involving Human Subjects Act (WMO) and was approved by the local Institutional Review Board. Written informed consent was obtained from all participants.
For each individual eye, assessment of GA progression between baseline and the measurement of the post treatment ocular proteomics was performed based on OCT images taken at the relevant visits (baseline and visits when AH sample taken). OCT analysis of retinal atrophy was performed using automated measurement of area of RPE loss, with a foveally centered, ETDRS matched analysis performed by RetinAI. Given variability in image centering and quality between visits, for a given eye, only those regions of the retina that had consistent OCT imaging & analysis coverage at each relevant timepoint were used to calculate change in area of retinal atrophy.

[12] = test system: complement component Ba in aqueous humor; assay: Real world SYFOVRE study: response category by aqueous humor Ba; format: in vivo, human
Procedure: as §2
Assessment of biomarkers of AH concentration of complement component Ba. Aqueous humor sampling of the eyes was conducted by anterior chamber paracentesis using a 30-gauge needle attached to a 1-ml syringe. Samples of up to 150 μl were obtained at baseline (prior to first administration of SYFOVRE®) and after the first, second, or third administration of SYFOVRE®. Quantitative measurement of AH Ba was carried out using a direct capture immunoassay (Micro Vue; Qidel Corporation). Samples were transferred to sterile polypropylene tubes immediately after collection and stored at −80° C. until analysis was performed.
Categorization of eyes into hyper/homeo/hypo groups was performed: Hyper was ≥20 ng/mL Ba, Homeo was <20 to ≥10 ng/mL Ba, Hypo was <10 ng/mL Ba.
Categorization of response to SYFOVRE® based on biomarker criteria was performed.

GA patients [13] = details: implication of FDA approved prescribing information; cited from earlier work
C3 = C3 (Homo sapiens, UniProt P01024); details: report from publications; read-out: affinity for C3; cited from earlier work
Sequence of C3 (P01024 23-1663): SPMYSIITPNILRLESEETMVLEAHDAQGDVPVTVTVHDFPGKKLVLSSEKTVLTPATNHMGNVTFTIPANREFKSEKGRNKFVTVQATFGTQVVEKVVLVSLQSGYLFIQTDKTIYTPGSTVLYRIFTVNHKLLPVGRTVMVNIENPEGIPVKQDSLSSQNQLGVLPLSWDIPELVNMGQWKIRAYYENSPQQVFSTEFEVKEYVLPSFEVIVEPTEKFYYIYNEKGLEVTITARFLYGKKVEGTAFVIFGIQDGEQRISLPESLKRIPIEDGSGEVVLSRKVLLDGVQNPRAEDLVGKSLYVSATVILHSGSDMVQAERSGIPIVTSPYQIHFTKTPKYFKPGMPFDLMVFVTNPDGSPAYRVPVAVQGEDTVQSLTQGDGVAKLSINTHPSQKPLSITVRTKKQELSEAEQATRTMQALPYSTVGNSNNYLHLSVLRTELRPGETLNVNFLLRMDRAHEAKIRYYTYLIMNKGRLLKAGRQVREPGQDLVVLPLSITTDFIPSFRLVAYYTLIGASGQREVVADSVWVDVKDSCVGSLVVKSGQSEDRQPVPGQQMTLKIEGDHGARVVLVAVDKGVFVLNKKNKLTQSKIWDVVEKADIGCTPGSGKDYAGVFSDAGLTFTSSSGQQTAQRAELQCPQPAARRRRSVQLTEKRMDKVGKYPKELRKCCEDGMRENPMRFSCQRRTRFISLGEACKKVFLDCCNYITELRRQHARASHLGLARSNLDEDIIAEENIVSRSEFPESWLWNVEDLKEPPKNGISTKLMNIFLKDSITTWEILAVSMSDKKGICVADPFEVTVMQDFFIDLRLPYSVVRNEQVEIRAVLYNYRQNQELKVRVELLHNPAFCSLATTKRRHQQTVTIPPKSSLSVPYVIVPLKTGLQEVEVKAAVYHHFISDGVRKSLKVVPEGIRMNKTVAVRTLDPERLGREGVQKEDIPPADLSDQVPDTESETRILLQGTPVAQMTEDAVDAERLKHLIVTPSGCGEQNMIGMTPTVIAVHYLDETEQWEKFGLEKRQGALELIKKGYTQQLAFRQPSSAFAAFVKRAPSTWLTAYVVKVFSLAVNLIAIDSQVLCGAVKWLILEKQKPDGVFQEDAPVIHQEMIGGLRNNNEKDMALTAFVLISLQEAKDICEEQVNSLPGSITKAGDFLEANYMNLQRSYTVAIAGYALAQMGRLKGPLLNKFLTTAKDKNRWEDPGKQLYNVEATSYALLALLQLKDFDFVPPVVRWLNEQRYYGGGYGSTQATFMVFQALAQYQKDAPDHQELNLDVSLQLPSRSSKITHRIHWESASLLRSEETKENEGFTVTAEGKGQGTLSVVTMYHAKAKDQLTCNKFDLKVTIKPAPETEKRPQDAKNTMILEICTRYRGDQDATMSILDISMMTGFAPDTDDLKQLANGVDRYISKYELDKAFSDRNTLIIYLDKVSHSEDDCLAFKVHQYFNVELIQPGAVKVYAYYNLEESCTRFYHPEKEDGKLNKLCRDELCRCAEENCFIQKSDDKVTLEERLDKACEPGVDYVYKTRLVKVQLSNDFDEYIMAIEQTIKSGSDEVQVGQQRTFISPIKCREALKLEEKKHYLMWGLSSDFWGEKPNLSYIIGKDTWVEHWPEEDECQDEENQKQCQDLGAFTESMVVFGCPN

Sequence of C5 (P01031 19-1676): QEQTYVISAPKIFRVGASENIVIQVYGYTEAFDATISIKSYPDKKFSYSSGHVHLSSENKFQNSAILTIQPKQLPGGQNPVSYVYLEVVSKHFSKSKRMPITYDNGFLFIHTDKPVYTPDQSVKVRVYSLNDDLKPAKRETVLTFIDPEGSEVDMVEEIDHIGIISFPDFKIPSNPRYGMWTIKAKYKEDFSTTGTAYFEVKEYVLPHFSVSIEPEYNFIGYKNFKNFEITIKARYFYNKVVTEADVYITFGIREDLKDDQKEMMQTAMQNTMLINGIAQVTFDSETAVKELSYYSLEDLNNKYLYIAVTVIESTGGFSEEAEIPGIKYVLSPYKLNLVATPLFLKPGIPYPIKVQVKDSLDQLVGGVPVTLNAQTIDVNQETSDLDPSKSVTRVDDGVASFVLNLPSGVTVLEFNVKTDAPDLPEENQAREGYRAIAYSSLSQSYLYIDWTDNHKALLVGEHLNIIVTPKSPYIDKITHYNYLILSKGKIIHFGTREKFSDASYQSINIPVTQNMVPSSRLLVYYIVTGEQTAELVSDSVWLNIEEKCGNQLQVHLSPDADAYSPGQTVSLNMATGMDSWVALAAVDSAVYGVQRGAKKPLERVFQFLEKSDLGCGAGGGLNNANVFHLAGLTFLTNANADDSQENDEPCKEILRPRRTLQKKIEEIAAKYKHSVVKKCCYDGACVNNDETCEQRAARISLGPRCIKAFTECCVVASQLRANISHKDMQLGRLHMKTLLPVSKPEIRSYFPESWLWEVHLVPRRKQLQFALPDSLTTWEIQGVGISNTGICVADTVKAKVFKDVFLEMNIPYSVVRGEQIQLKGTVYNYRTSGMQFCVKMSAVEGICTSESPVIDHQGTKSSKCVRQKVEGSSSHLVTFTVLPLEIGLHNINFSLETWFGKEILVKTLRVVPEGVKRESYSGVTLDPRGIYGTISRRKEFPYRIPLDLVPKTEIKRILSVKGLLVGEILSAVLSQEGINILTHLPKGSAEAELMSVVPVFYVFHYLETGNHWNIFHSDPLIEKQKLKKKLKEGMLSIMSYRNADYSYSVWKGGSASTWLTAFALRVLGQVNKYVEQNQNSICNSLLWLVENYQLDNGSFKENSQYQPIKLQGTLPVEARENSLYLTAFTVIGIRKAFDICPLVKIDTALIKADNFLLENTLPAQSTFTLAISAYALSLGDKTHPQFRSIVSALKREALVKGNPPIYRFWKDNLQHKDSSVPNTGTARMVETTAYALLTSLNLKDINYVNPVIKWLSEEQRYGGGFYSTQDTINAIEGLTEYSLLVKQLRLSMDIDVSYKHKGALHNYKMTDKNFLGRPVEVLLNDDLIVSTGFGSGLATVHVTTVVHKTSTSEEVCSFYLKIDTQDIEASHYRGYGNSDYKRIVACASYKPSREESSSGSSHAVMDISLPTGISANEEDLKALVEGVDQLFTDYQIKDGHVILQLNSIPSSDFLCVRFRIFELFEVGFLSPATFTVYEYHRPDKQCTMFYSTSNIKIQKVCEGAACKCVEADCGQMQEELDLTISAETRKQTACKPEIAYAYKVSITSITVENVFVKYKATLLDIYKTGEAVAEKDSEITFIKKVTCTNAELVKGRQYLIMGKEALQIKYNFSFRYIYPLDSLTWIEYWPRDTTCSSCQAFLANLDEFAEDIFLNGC

[2H]C([2H])([2H])C(/C=C/C=C(C)/C=C/C1=C(C)CCCC1(C)C)=C\COC(C)=O [Alkeus]
benefit in trials [1]: failed to show benefit

CC(=O)c1nn(CC(=O)N2C[C@H](F)C[C@H]2C(=O)Nc2cccc(Br)n2)c2ccc(-c3cnc(C)nc3)cc12 [danicopan]
benefit in trials [1]: failed to show benefit

avacincaptad pegol [IZERVAY®]
reduction in mean rate of GA growth vs. sham at 12 months (GA patients [2]; GATHER 1): 27.4% | reduction in mean rate of GA growth vs. sham at 12 months (GA patients [2]; GATHER 2): 14% | Kd (C5): ~3 nM | geometric mean half-life of elimination (t1/2) [3]: 288 h

lampalizumab: anti-fD fab, intravitreally administered 10 mg at q4w or q6w
Post treatment response: Effective (number of eyes) (Bb in aqueous humor [4]; Q4w, 35 eyes, 14 hyper): 6 | Of Hyper; Effective (Bb in aqueous humor [4]; Q4w): 43% | Post treatment response: Effective (number of eyes) (Bb in aqueous humor [4]; Q6w, 32 eyes, 10 hyper): 2 | Of Hyper; Effective (Bb in aqueous humor [4]; Q6w): 20% | Bb/CFB in aqueous humor (Bb in aqueous humor [5]): decreases in Bb/CFB | Change in GA area from baseline: (Edmonds et al) Biomarker pooled cohort at 48 w divided by 2 ([6]; Q4w): 1.08 | Change in GA area from baseline: CHROMA + SPECTRIA Pooled topline extrapolate to 24 w ([6]; Q4w): 1.027 | Change in GA area from baseline: (Edmonds et al) Biomarker pooled cohort at 48 w divided by 2 ([6]; Q6w): 1.03 | Change in GA area from baseline: CHROMA + SPECTRIA Pooled topline extrapolate to 24 w ([6]; Q6w): 1.028 | benefit in trials [1]: failed to show benefit | Status (clinical trial outcome) [1]: failed to meet | Change in GA area from baseline: (Edmonds et al) Biomarker pooled cohort at 48 w ([7]; Q4w): 2.16 | Change in GA area from baseline: Actual Data from (Edmonds) Biomarker pooled cohort at 24 w ([7]; Q4w): 1.0 | Change in GA area from baseline: CHROMA + SPECTRI Pooled topline at 48 weeks ([7]; Q4w): 2.054 | Change in GA area from baseline: (Edmonds et al) Biomarker pooled cohort at 48 w ([7]; Q6w): 2.06 | Change in GA area from baseline: Actual Data from (Edmonds) Biomarker pooled cohort at 24 w ([7]; Q6w): 1.04 | Change in GA area from baseline: CHROMA + SPECTRI Pooled topline at 48 weeks ([7]; Q6w): 2.055

pegcetacoplan [SYFOVRE®]
geometric mean half-life of elimination (t1/2) [8]: 108 h | spatial GA progression compared to untreated fellow eyes [9]: reduction in spatial GA progression | >=50% slowing study vs. fellow, % ([10]; PEOM (every other month), 35 eyes): 20% | >=50% slowing study vs. fellow, % ([10]; PM (monthly), 36 eyes): 53% | RPE depletion area post treatment ([11]; Eye ID 001, OD, hyper baseline, effective complement inhibition, baseline 6.57 mm^2): 6.45 mm^2 | RPE depletion area post treatment ([11]; Eye ID 002, OS, hypo baseline, baseline 5.8 mm^2): 6.75 mm^2 | Response Category ([12]; Eye ID 001, OD, baseline category Hyper): Effective Complement Inhibition | Response Category ([12]; Eye ID 002, OS, baseline category Hypo): Not | Response Category ([12]; Eye ID 003, OD, baseline category Hyper): Not | Response Category ([12]; Eye ID 004, OS, baseline category Hyper): Not | Response Category ([12]; Eye ID 005, OD, baseline category Homeo): Not | Response Category ([12]; Eye ID 006, OS, baseline category Homeo): Not | Response Category ([12]; Eye ID 007, OD, baseline category Hypo): Not | Response Category ([12]; Eye ID 008, OS, baseline category Hypo): Not | Response Category ([12]; Eye ID 009, OD, baseline category Hypo): Not | expected average efficacy, slowing for all indicated GA patients (GA patients [13]): 20% | Kd (C3): 15 nM

B1: Tesidolumab: an antibody vs. C5 (antibody, chains of the INN, looked up, V domains shown)
VH: EVQLVQSGAEVKKPGSSVKVSCKASGGTFSSYAISWVRQAPGQGLEWMGGIGPFFGTANYAQKFQGRVTITADESTSTAYMELSSLRSEDTAVYYCARDTPYFDYWGQGTLVTVSS
VL: SYELTQPLSVSVALGQTARITCSGDSIPNYYVYWYQQKPGQAPVLVIYDDSNRPSGIPERFSGSNSGNTATLTISRAQAGDEADYYCQSFDSSLNAEVFGGGTKLTVL
Status (clinical trial outcome) [1]: Phase II failed
